Results as given in ChEMBL document CHEMBL1121420, “Preparation and antitumor activity of olivomycin A analogues” (1980).

Tests used:
Mus musculus [1] = assay: Average change in weight is tested in mice at a dose of 2 mg/kg; format: functional; parameters: unit not given here
Mus musculus [2] = assay: Average change in weight is tested in mice at a dose of 8 mg/kg; format: functional; parameters: unit not given here
P388 [3] = assay: Tested on P-388 Leukemia for median survival time treated to median survival time control when administered intraperitoneally at a dose of 16 mg/kg; format: functional, Mus musculus; conditions: route intraperitoneal
P388 [4] = assay: Tested on P-388 Leukemia for median survival time treated to median survival time control when administered intraperitoneally at a dose of 2 mg/kg; format: functional, Mus musculus; conditions: route intraperitoneal
P388 [5] = assay: Tested on P-388 Leukemia for median survival time treated to median survival time control when administered intraperitoneally at a dose of 4 mg/kg; format: functional, Mus musculus; conditions: route intraperitoneal
P388 [6] = assay: Tested on P-388 Leukemia for median survival time treated to median survival time control when administered intraperitoneally at a dose of 8 mg/kg; format: functional, Mus musculus; conditions: route intraperitoneal
Mus musculus [7] = assay: Average change in weight is tested in mice at a dose of 16 mg/kg; format: functional; parameters: unit not given here
Mus musculus [8] = assay: Average change in weight is tested in mice at a dose of 4 mg/kg; format: functional; parameters: unit not given here
Mus musculus [9] = assay: Average change in weight is tested in mice at a dose of 1 mg/kg; format: functional; parameters: unit not given here
P388 [10] = assay: Tested on P-388 Leukemia for median survival time treated to median survival time control when administered intraperitoneally at a dose of 1 mg/kg; format: functional, Mus musculus; conditions: route intraperitoneal
Mus musculus [11] = assay: Average change in weight is tested in mice at a dose of 0.25 mg/kg; format: functional
Mus musculus [12] = assay: Average change in weight is tested in mice at a dose of 0.5 mg/kg; format: functional
P388 [13] = assay: Tested on P-388 Leukemia for median survival time treated to median survival time control when administered intraperitoneally at a dose of 0.25 mg/kg; format: functional, Mus musculus; conditions: route intraperitoneal
P388 [14] = assay: Tested on P-388 Leukemia for median survival time treated to median survival time control when administered intraperitoneally at a dose of 0.5 mg/kg; format: functional, Mus musculus; conditions: route intraperitoneal
Mus musculus [15] = assay: Average change in weight is tested in mice at a dose of 8 mg/kg; Toxic; format: functional, organism-based; parameters: dose 8 mg/kg
P388 [16] = assay: Tested on P-388 Leukemia for median survival time treated to median survival time control when administered intraperitoneally at a dose of 8 mg/kg; Toxic; format: functional, organism-based; parameters: dose 8 mg/kg; conditions: Mus musculus
Mus musculus [17] = assay: Average change in weight is tested in mice at a dose of 4 mg/kg; Toxic; format: functional, organism-based; parameters: dose 4 mg/kg
P388 [18] = assay: Tested on P-388 Leukemia for median survival time treated to median survival time control when administered intraperitoneally at a dose of 4 mg/kg; Toxic; format: functional, organism-based; parameters: dose 4 mg/kg; conditions: Mus musculus

Row | SMILES | Activity (Mus musculus [1]) | Activity (Mus musculus [2]) | T/C (P388 [3]) [%] | T/C (P388 [4]) [%] | T/C (P388 [5]) [%] | T/C (P388 [6]) [%] | Activity (Mus musculus [7]) | Activity (Mus musculus [8]) | Activity (Mus musculus [9]) | T/C (P388 [10]) [%] | Activity (Mus musculus [11]) | Activity (Mus musculus [12]) | T/C (P388 [13]) [%] | T/C (P388 [14]) [%] | Activity (Mus musculus [15]) | T/C (P388 [16]) | Activity (Mus musculus [17]) | T/C (P388 [18])
1 | COC(C(=O)C(O)C(C)O)C1Cc2cc3cc(OC4CC(OC(C)=O)C(OC5CC(O)C(OC)C(C)O5)C(C)O4)c([N+](=O)[O-])c(O)c3c(O)c2C(=O)C1OC1CC(OC2CC(OC3CC(C)(O)C(OC(=O)C(C)C)C(C)O3)C(O)C(C)O2)C(O)C(C)O1 (centres undefined) | 2.8 | 3.5 | 100 | 100 | 110 | 100 | 2.4 | 2 | – | – | – | – | – | – | – | – | – | –
2 | COC(C(=O)C1OC2(CCCCC2)OC1C)C1Cc2cc3cc(OC4CC(OC(C)=O)C(OC5CC(O)C(OC)C(C)O5)C(C)O4)cc(O)c3c(O)c2C(=O)C1OC1CC(OC2CC(OC3CC(C)(O)C(OC(=O)C(C)C)C(C)O3)C(O)C(C)O2)C(O)C(C)O1 (centres undefined) | 1 | 0.2 | 100 | 111 | 100 | 139 | 0.7 | 0 | – | – | – | – | – | – | – | – | – | –
3 | C/N=C(\C(O)C(C)O)C(OC)C1Cc2cc3cc(OC4CC(OC(C)=O)C(OC5CC(O)C(OC)C(C)O5)C(C)O4)cc(O)c3c(O)c2CC1OC1CC(OC2CC(OC3CC(C)(O)C(OC(=O)C(C)C)C(C)O3)C(O)C(C)O2)C(O)C(C)O1 (centres undefined) | -0.3 | -3.3 | – | 140 | 110 | 115 | – | 0.4 | 0.3 | 125 | – | – | – | – | – | – | – | –
4 | COc1cc(OC2CC(OC(C)=O)C(OC3CC(O)C(OC)C(C)O3)C(C)O2)cc2cc3c(c(OC)c12)C(=O)C(OC1CC(OC2CC(OC4CC(C)(O)C(OC(=O)C(C)C)C(C)O4)C(O)C(C)O2)C(O)C(C)O1)C(C(OC)C(=O)C(O)C(C)O)C3 (centres undefined) | 0.3 | 0.4 | 140 | 115 | 130 | 155 | 0.9 | 0.2 | – | – | – | – | – | – | – | – | – | –
5 | COc1cc(OC2CC(OC(C)=O)C(OC3CC(O)C(OC)C(C)O3)C(C)O2)cc2cc3c(c(O)c12)C(=O)C(OC1CC(OC2CC(OC4CC(C)(O)C(OC(=O)C(C)C)C(C)O4)C(O)C(C)O2)C(O)C(C)O1)C(C(OC)C(=O)C(O)C(C)O)C3 (centres undefined) | 0.7 | – | – | 156 | 156 | – | – | 1.3 | 1.3 | 144 | 1.3 | 1.3 | 106 | 133 | – | – | – | –
6 | COC(/C(=N/NC(N)=O)C(O)C(C)O)C1Cc2cc3cc(OC4CC(OC(C)=O)C(OC5CC(O)C(OC)C(C)O5)C(C)O4)cc(O)c3c(O)c2C(=O)C1OC1CC(OC2CC(OC3CC(C)(O)C(OC(=O)C(C)C)C(C)O3)C(O)C(C)O2)C(O)C(C)O1 (centres undefined) | 1.8 | 1.2 | 105 | 85 | 110 | 110 | -2.3 | 1.3 | – | – | – | – | – | – | – | – | – | –
7 | COC(C(=O)C(O)C(C)O)C1Cc2cc3cc(OC4CC(OC(C)=O)C(OC5CC(O)C(OC)C(C)O5)C(C)O4)c(Br)c(O)c3c(O)c2C(=O)C1OC1CC(OC2CC(OC3CC(C)(O)C(OC(=O)C(C)C)C(C)O3)C(O)C(C)O2)C(O)C(C)O1 (centres undefined) | 0.3 | 0.1 | 130 | 110 | 120 | 150 | 0.1 | 1.2 | – | – | – | – | – | – | – | – | – | –
8 | COC(C(=O)C1OC(C)(C)OC1C)C1Cc2cc3cc(OC4CC(OC(C)=O)C(OC5CC(O)C(OC)C(C)O5)C(C)O4)cc(O)c3c(O)c2C(=O)C1OC1CC(OC2CC(OC3CC(C)(O)C(OC(=O)C(C)C)C(C)O3)C(O)C(C)O2)C(O)C(C)O1 (centres undefined) | 0.6 | 0.8 | 167 | 117 | 139 | 156 | 1.3 | 0.3 | – | – | – | – | – | – | – | – | – | –
9 | COC1C(O)CC(OC2C(C)OC(Oc3cc(O)c4c(O)c5c(cc4c3)CC(C(OC)C(O)C(O)C(C)O)C(OC3CC(OC4CC(OC6CC(C)(O)C(OC(=O)C(C)C)C(C)O6)C(O)C(C)O4)C(O)C(C)O3)C5=O)CC2OC(C)=O)OC1C (centres undefined) | 1.1 | 0.2 | 130 | 90 | 125 | 140 | 0.9 | 0.2 | – | – | – | – | – | – | – | – | – | –
10 | COC(C(=O)C(O)C(C)O)C1Cc2cc3cc(OC4CC(OC(C)=O)C(OC5CC(O)C(OC)C(C)O5)C(C)O4)cc(O)c3c(O)c2CC1OC1CC(OC2CC(OC3CC(C)(O)C(OC(=O)C(C)C)C(C)O3)C(O)C(C)O2)C(O)C(C)O1 (centres undefined) | 0.7 | 1 | – | 150 | 140 | 150 | – | 0.7 | 1.1 | 110 | – | – | – | – | – | – | – | –
11 | COC1C(O)CC(OC2C(C)OC(Oc3cc(O)c4c(O)c5c(cc4c3)CC(C(OC)C(O)C(O)C(C)O)C(OC3CC(OC4CC(OC6CC(C)(O)C(OC(=O)C(C)C)C(C)O6)C(O)C(C)O4)C(O)C(C)O3)C5)CC2OC(C)=O)OC1C (centres undefined) | 5.3 | 3.5 | 139 | 100 | 100 | 106 | 0.5 | 3.7 | – | – | – | – | – | – | – | – | – | –
12 | C/N=C(\C(O)C(C)O)C(OC)C1Cc2cc3cc(OC4CC(OC(C)=O)C(OC5CC(O)C(OC)C(C)O5)C(C)O4)cc(O)c3c(O)c2C(=O)C1OC1CC(OC2CC(OC3CC(C)(O)C(OC(=O)C(C)C)C(C)O3)C(O)C(C)O2)C(O)C(C)O1 (centres undefined) | 0.1 | – | – | 140 | 155 | – | – | 2.4 | 1.1 | 122 | – | – | – | – | Toxic | Toxic | – | –
13 | COC(/C(=N/O)C(O)C(C)O)C1Cc2cc3cc(OC4CC(OC(C)=O)C(OC5CC(O)C(OC)C(C)O5)C(C)O4)cc(O)c3c(O)c2C(=O)C1OC1CC(OC2CC(OC3CC(C)(O)C(OC(=O)C(C)C)C(C)O3)C(O)C(C)O2)C(O)C(C)O1 (centres undefined) | 1.3 | 0.8 | – | 155 | – | – | – | 0.8 | – | 100 | – | – | – | 100 | – | – | Toxic | Toxic
14 | COC(/C(=N/Nc1ccccc1)C(O)C(C)O)C1Cc2cc3cc(OC4CC(OC(C)=O)C(OC5CC(O)C(OC)C(C)O5)C(C)O4)cc(O)c3c(O)c2C(=O)C1OC1CC(OC2CC(OC3CC(C)(O)C(OC(=O)C(C)C)C(C)O3)C(O)C(C)O2)C(O)C(C)O1 (centres undefined) | 0.2 | 0.5 | 140 | 120 | 120 | 140 | 1.3 | 0.5 | – | – | – | – | – | – | – | – | – | –
15 | CO/N=C(\C(O)C(C)O)C(OC)C1Cc2cc3cc(OC4CC(OC(C)=O)C(OC5CC(O)C(OC)C(C)O5)C(C)O4)cc(O)c3c(O)c2C(=O)C1OC1CC(OC2CC(OC3CC(C)(O)C(OC(=O)C(C)C)C(C)O3)C(O)C(C)O2)C(O)C(C)O1 (centres undefined) | 0.3 | 2.8 | – | 167 | 156 | 144 | – | 1.3 | 0.9 | 144 | 1.3 | 0.8 | 128 | 156 | – | – | – | –
16 | COC(C(=O)C(O)C(C)O)C1Cc2cc3cc(OC4CC(OC(C)=O)C(OC5CC(O)C(OC)C(C)O5)C(C)O4)cc(O)c3c(O)c2C(=O)C1OC1CC(OC2CC(OC3CC(C)(O)C(OC(=O)C(C)C)C(C)O3)C(O)C(C)O2)C(O)C(C)O1 (centres undefined) | 0 | – | – | 146 | 157 | – | – | 0.4 | 0.3 | 130 | – | 1 | – | 114 | – | – | – | –
